Where two headings read alike, the source gives them in different places.
Tests used:
HBV = experiment: Anti-viral assay in HepG2.2.15 cells: HBV DNA in culture medium by qPCR; format: cell-based; details: Hepatitis B virus, HepG2.2.15, 144 h
Protocol: (§1) HepG2.2.15 (the HepG2.2.15 cell line can be produced by transfection of the HepG2 cell line as described in Sells, Chen, and Acs 1987 (Proc. Natl. Acad. Sci. USA 84: 1005-1009), and the HepG2 cell line is available from ATCC® under number HB-8065™).
(§2) HepG2.2.15 cells were plated into 96-well plate in 2% FBS culture medium at the density of 40,000 cells/well and 5,000 cells/well for HBV inhibitory activity and cytotoxicity determination, respectively. After incubation at 37° C., 5% CO2 overnight, cells were treated with medium containing compounds for 6 days with medium and compounds refreshed after 3 days of treatment. Each compound was tested in a 1:3 serial dilutions at 8 different concentrations in triplicate. The highest concentration of the compounds was 10 uM or 1 uM for anti-HBV activity assay and 100 uM for cytotoxicity determination. Cell viability was determined by CCK-8 assay. After 6 days of compounds treatment, 20 μl CCK-8 reagents were added to each well of cytotoxicity assay plates. Cell plates were incubated at 37° C., 5% CO2 for 2.5 h. The absorbance at 450 nm wavelength and the absorbance at 630 nm wavelength as reference was measured.
The change of HBV DNA level induced by the compounds was assessed by quantitative real-time polymerase chain reaction (qPCR). Briefly, the HBV DNA in the culture medium was extracted using QlAamp 96 DNA Blood Kit according to the manual and then quantified by real-time PCR assay using the primers and probe in the table 1 below.
(§3) EC50 and CC50 values are calculated by the GRAPHPAD PRISM software.

[1] = Cytotoxicity determination in HepG2.2.15 cells (CCK-8 cell viability); format: cell-based; details: human, 6 days treatment, CCK-8, highest concentration 100 uM
Protocol: as §1, §2, §3

[2] = HepG2.2.15 cells, 6 days treatment, HBV DNA in culture medium by real-time PCR, read-out: EC50

| SMILES | EC50 (HBV; [2]) [µM] | CC50 at 6 days [1] [µM] | EC50 (HBV) [µM] |
| --- | --- | --- | --- |
| CCOC(=O)C1=C(CN2CCO[C@H]3CN(CC(C)(C)C(=O)O)C[C@H]32)NC(c2nccs2)=N[C@H]1c1cccc(F)c1C (relative stereo) [Compound I-6A, 3-((4aR*,7aS*)-4-4(S)-5-(Ethoxycarbonyl)-6-(3-fluoro-2-methylphenyl)-2-(thiazol-2-yl)-3,6-dihydropyrimidin-4-yl)methyphexahydropyrrolo[3,4-b][1,4]oxazin-6(2H)-yl)-2,2-dimethylpropanoic acid] | 0.018 | 82.4 |  |
| CCOC(=O)C1=C(CN2CCO[C@H]3CN(C(=O)C(C)(C)C(=O)O)C[C@H]32)NC(c2nccs2)=N[C@H]1c1cccc(F)c1C (relative stereo) [Compound I-12A, 3-((4aR*,7aS*)-4-4(S)-5-(ethoxycarbonyl)-6-(3-fluoro-2-methylphenyl)-2-(thiazol-2-yl)-3,6-dihydropyrimidin-4-yl)methyl)hexahydropyrrolo[3,4-b][1,4]oxazin-6(2H)-yl)-2,2-dimethyl-3-oxopropanoic acid] |  | > 100 | 0.31 |
| CCOC(=O)C1=C(CN2CCO[C@@H]3CN(C4CCC(C(=O)O)C4)C[C@@H]32)NC(c2nccs2)=N[C@H]1c1cccc(F)c1C (stereo partly shown) [Compound I-5] |  | 40.6 | 0.086 |
| CCOC(=O)C1=C(CN2CCO[C@@H]3CN(c4ncc(C(=O)O)s4)C[C@@H]32)NC(c2nccs2)=N[C@H]1c1cccc(F)c1C (racemic) [Compound I-8F, 2-((cis)-4-(((S)-5-(Ethoxycarbonyl)-6-(3-fluoro-2-methylphenyl)-2-(thiazol-2-yl)-3,6-dihydropyrimidin-4-yl)methyl)hexahydropyrrolo[3,4-b][1,4]oxazin-6(2H)-yl)thiazole-5-carboxylic acid] |  | 37.6 | 0.045 |
| CCOC(=O)C1=C(CN2CCO[C@H]3CN(CC(C)(C)C(=O)O)C(=O)[C@H]32)NC(c2nccs2)=N[C@H]1c1ccc(F)c(F)c1Cl (single isomer, unassigned) [Compound I-23A, 3-((4aS*,7aS*)-4-4(R*)-6-(2-chloro-3,4-difluorophenyl)-5-(ethoxycarbonyl)-2-(thiazol-2-yl)-3,6-dihydropyrimidin-4-yl)methyl)-5-oxohexahydropyrrolo[3,4-b][1,4]oxazin-6(2H)-yl)-2,2-dimethylpropanoic acid] | 0.0005 | 45 |  |
| CCOC(=O)C1=C(CN2CCO[C@H]3CN(CC(C)(C)C(=O)O)C[C@H]32)NC(c2nccs2)=N[C@H]1c1cccc(F)c1Cl (single isomer, unassigned) [Compound I-13A, 3-((4aR*,7aS*)-4-0(R*)-6-(2-Chloro-3-fluorophenyl)-5-(ethoxycarbonyl)-2-(thiazol-2-yl)-3,6-dihydropyrimidin-4-yl)methyl)hexahydropyrrolo[3,4-b][1,4]oxazin-6(2H)-yl)-2,2-dimethylpropanoic acid] | 0.013 | 67.1 |  |
| COC(=O)C1=C(CN2CCO[C@H]3CN(C(=O)OC(C)(C)C)C[C@@H]32)NC(c2ncc(F)cc2F)=N[C@@H]1c1ccc(F)cc1Cl (single isomer, unassigned) [Reference 1D, (4aS*,7aS*)-tert-butyl 4-4(S*)-6-(2-chloro-4-fluorophenyl)-2-(3,5-difluoropyridin-2-yl)-5-(methoxycarbonyl)-3,6-dihydropyrimidin-4-yl)methyl)hexahydropyrrolo[3,4-b][1,4]oxazine-6(2H)-carboxylate, reference compound] | 0.812 | 5.6 |  |
| COC(=O)C1=C(CN2CCO[C@H]3CN(CC(C)(C)C(=O)O)C[C@H]32)NC(c2nccs2)=N[C@H]1c1cccc(F)c1C (single isomer, unassigned) [Compound I-14A, 3-((4aR*,7aS*)-4-0(S*)-6-(3-fluoro-2-methylphenyl)-5-(methoxycarbonyl)-2-(thiazol-2-yl)-3,6-dihydropyrimidin-4-yl)methyl)hexahydropyrrolo[3,4-b][1,4]oxazin-6(2H)-yl)-2,2-dimethylpropanoic acid] | 0.033 | > 100 |  |
| COC(=O)C1=C(CN2CCO[C@@H]3CN(C(=O)OC(C)(C)C)C[C@H]32)NC(c2ncc(F)cc2F)=N[C@@H]1c1ccc(F)cc1Cl (single isomer, unassigned) [Reference 1C, (4aR*,7aR*)-tert-butyl 4-4(S*)-6-(2-chloro-4-fluorophenyl)-2-(3,5-difluoropyridin-2-yl)-5-(methoxycarbonyl)-3,6-dihydropyrimidin-4-yl)methyl)hexahydropyrrolo[3,4-b][1,4]oxazine-6(2H)-carboxylate, reference compound] | 0.677 | 3.7 |  |
| COC(=O)C1=C(CN2CCO[C@@H]3CN(C(=O)OC(C)(C)C)C[C@@H]32)NC(c2ncc(F)cc2F)=N[C@@H]1c1ccc(F)cc1Cl (single isomer, unassigned) [Reference 1H, (4aS*,7aR*)-tert-butyl 4-(((S*)-6-(2-chloro-4-fluorophenyl)-2-(3,5-difluoropyridin-2-yl)-5-(methoxycarbonyl)-3,6-dihydropyrimidin-4-yl)methyl)hexahydropyrrolo[3,4-b][1,4]oxazine-6(2H)-carboxylate, reference compound] | > 1 | 8.7 |  |
| CCOC(=O)C1=C(CN2CCO[C@@H]3CN(C(C)=O)C[C@@H]32)NC(c2nccs2)=N[C@H]1c1cccc(F)c1C (racemic) [Compound I-4E, (S)-ethyl 6-(((cis)-6-acetylhexahydropyrrolo[3,4-b][1,4]oxazin-4(4aH)-yl)methyl)-4-(3-fluoro-2-methylphenyl)-2-(thiazol-2-yl)-1,4-dihydropyrimidine-5-carboxylate] |  | 48.3 | 0.0071 |
| COC(=O)C1=C(CN2CCO[C@H]3CN(CC(C)(C)C(=O)O)C(=O)[C@H]32)NC(c2nccs2)=N[C@H]1c1cccc(F)c1C (single isomer, unassigned) [Compound I-19A, 3-((4aS*,7aS*)-4-4(S*)-6-(3-fluoro-2-methylphenyl)-5-(methoxycarbonyl)-2-(thiazol-2-yl)-3,6-dihydropyrimidin-4-yl)methyl)-5-oxohexahydropyrrolo[3,4-b][1,4]oxazin-6(2H)-yl)-2,2-dimethylpropanoic acid] | 0.028 | 59.1 |  |
| COC(=O)C1=C(CN2CCO[C@H]3CN(CC(C)(C)C(=O)O)C(=O)[C@H]32)NC(c2nccs2)=N[C@H]1c1cccc(F)c1Cl (single isomer, unassigned) [Compound I-21A, 3-((4aS*,7aS*)-4-4(R*)-6-(2-chloro-3-fluorophenyl)-5-(methoxycarbonyl)-2-(thiazol-2-yl)-3,6-dihydropyrimidin-4-yl)methyl)-5-oxohexahydropyrrolo[3,4-b][1,4]oxazin-6(2H)-yl)-2,2-dimethylpropanoic acid] | 0.008 | > 100 |  |
| COC(=O)C1=C(CN2CCO[C@H]3CN(C(=O)OC(C)(C)C)C[C@@H]32)NC(c2ncc(F)cc2F)=N[C@H]1c1ccc(F)cc1Cl (single isomer, unassigned) [Reference 1B, (4aS*,7aS*)-tert-butyl 4-(((R*)-6-(2-chloro-4-fluorophenyl)-2-(3,5-difluoropyridin-2-yl)-5-(methoxycarbonyl)-3,6-dihydropyrimidin-4-yl)methyl)hexahydropyrrolo[3,4-b][1,4]oxazine-6(2H)-carboxylate, reference compound] | > 1 | 2.5 |  |
| CCOC(=O)C1=C(CN2CCO[C@@H]3CN(S(C)(=O)=O)C[C@@H]32)NC(c2nccs2)=N[C@H]1c1cccc(F)c1C (racemic) [Compound I-7F, (S)-(cis)-Ethyl 4-(3-fluoro-2-methylphenyl)-6-((6-(methylsulfonyl)hexahydropyrrolo[3,4-b][1,4]oxazin-4(4aH)-yl)methyl)-2-(thiazol-2-yl)-1,4-dihydropyrimidine-5-carboxylate] | 0.008 | 26.4 |  |
| COC(=O)C1=C(CN2CCO[C@@H]3CN(C(=O)OC(C)(C)C)C[C@@H]32)NC(c2ncc(F)cc2F)=N[C@H]1c1ccc(F)cc1Cl (single isomer, unassigned) [Reference 1G, (4aS*,7aR*)-tert-butyl 4-(((R*)-6-(2-chloro-4-fluorophenyl)-2-(3,5-difluoropyridin-2-yl)-5-(methoxycarbonyl)-3,6-dihydropyrimidin-4-yl)methyl)hexahydropyrrolo[3,4-b][1,4]oxazine-6(2H)-carboxylate, reference compound] | > 1 | 14.5 |  |
| CCOC(=O)C1=C(CN2CCO[C@H]3CN(C(=O)CC(C)(C)C(=O)O)C[C@H]32)NC(c2nccs2)=N[C@H]1c1cccc(F)c1C (relative stereo) [Compound I-2A, 4-((4aR*,7aS*)-4-4(S)-5-(ethoxycarbonyl)-6-(3-fluoro-2-methylphenyl)-2-(thiazol-2-yl)-3,6-dihydropyrimidin-4-yl)methyl)hexahydropyrrolo[3,4-b][1,4]oxazin-6(2H)-yl)-2,2-dimethyl-4-oxobutanoic acid] |  | 74 | 0.033 |

Source: patent US20230002408A1, “HETEROARYLDIHYDROPYRIMIDINE DERIVATIVES AND METHODS OF TREATING HEPATITIS B INFECTIONS” (JANSSEN PHARMACEUTICA NV, priority 2019, published 2023)
